In ChEMBL document CHEMBL1201862, “PubChem BioAssay data set” (2004):
Activity calls are given as the source filed them.

Tests used:
[1] = molecular target: Lysine-specific demethylase 4A (Homo sapiens, UniProt O75164); experiment: JMJD2A histone demethylase inhibitors, dose response, selectivity assay for GASC-1 inhibitor project, biochemical, DELFIA europium, cherry-picked samples (AID 488840)
[2] = molecular target: T1, Fatty acid synthase (Homo sapiens, UniProt P49327); experiment: FAS thioesterase domain inhibitors, dose response, biochemical, endpoint fluorescence intensity, uHTS hits (AID 624327); format: functional;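 further: fluorescence from hydrolysis of an O-methyl fluorescein acyl ester substrate by the enzyme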
[3] = molecular target: T2, Lysine-specific demethylase 4C (Homo sapiens, UniProt Q9H3R0); experiment: GASC-1 (JMJD2C) histone demethylase inhibitors, dose response, biochemical, DELFIA europium, cherry-picked samples (AID 488835); format: functional
T2 sequence (Q9H3R0 whole entry): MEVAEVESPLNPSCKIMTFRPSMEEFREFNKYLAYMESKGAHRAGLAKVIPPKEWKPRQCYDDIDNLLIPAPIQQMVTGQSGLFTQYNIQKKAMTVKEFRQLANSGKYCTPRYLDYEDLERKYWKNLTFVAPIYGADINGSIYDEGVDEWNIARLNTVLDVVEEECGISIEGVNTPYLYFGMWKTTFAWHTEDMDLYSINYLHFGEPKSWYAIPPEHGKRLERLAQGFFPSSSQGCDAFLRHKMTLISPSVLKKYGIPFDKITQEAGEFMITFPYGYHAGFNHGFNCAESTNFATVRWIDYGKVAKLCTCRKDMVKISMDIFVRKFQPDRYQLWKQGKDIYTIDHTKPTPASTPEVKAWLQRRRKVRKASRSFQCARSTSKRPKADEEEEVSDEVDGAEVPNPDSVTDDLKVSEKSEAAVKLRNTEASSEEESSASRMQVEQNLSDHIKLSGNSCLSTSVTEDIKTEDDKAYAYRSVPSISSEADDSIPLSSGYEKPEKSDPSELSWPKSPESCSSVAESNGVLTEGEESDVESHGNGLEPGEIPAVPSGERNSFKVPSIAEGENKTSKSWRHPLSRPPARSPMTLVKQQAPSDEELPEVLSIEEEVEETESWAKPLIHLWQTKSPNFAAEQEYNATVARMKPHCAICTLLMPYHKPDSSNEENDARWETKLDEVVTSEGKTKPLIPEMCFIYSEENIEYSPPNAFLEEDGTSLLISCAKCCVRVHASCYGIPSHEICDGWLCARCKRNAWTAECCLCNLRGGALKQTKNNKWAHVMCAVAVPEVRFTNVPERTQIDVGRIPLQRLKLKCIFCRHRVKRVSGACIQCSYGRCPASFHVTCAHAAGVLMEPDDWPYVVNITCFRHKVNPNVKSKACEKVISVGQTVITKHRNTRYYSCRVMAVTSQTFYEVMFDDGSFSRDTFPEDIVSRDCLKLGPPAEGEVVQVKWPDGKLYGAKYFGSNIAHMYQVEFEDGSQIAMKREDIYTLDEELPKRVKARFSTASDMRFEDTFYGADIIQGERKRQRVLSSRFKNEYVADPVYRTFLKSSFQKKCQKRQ

[4] = molecular target: T1, Fatty acid synthase; experiment: FAS thioesterase domain inhibitors, dose response, biochemical, kinetic fluorescence intensity (AID 624326); format: functional;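 further: rate of fluorescence rise from hydrolysis of a fluorogenic O-methyl fluorescein ester substrate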
[5] = molecular target: G-protein coupled receptor 55 (Homo sapiens, UniProt Q9Y2T6); experiment: SAR analysis of selective Agonists of GPR55 using an Image-Based Assay. [Related pubchem assays (depositor defined):AID1961, AID1965]; format: functional
[6] = molecular target: Cannabinoid receptor 1 (Homo sapiens, UniProt P21554); experiment: SAR analysis of antagonists of the Cannabinoid Receptor 1 using an Image-Based Assay. [Related pubchem assays (depositor defined):AID1961, AID1965]; format: functional
[7] = molecular target: T3, Cannabinoid receptor 2 (Homo sapiens, UniProt P34972); experiment: SAR analysis of agonists of the Cannabinoid Receptor 2 using an Image-Based Assay - Set 2. [Related pubchem assays (depositor defined):AID1961, AID1965]; format: functional
[8] = molecular target: T3, Cannabinoid receptor 2; experiment: SAR analysis of antagonists of the Cannabinoid Receptor 2 using an Image-Based Assay - Set 2. [Related pubchem assays (depositor defined):AID1961, AID1965]; format: functional
[9] = molecular target: Nucleotide-binding oligomerization domain-containing protein 1 (Homo sapiens, UniProt Q9Y239); experiment: SAR analysis of compounds that inhibit NOD1 - Set 3. [Related pubchem assays (depositor defined):AID1566, AID1575, AID1578, AID1849, AID1852, AID2333, AID2335, AID2466]; format: functional
[10] = tested on: HEK293; experiment: SAR analysis of compounds that are cytotoxic to HEK293 - Set 3. [Related pubchem assays (depositor defined):AID1575, AID1578, AID1848, AID1849, AID2001, AID2333, AID2334, AID2335, AID2337, AID2469]; format: functional, cell-based; conditions: Homo sapiens
[11] = molecular target: Tumor necrosis factor (Homo sapiens, UniProt P01375); experiment: TNFa-triggered NF-kB activation inhibitors, SAR follow-up, cell-based, set 3 (AID 2801); format: functional
[12] = molecular target: Nucleotide-binding oligomerization domain-containing protein 2 (Homo sapiens, UniProt Q9HC29); experiment: NOD2 signaling inhibitors, analog potency, SAR follow-up, cell-based, set 3 (AID 2799); format: functional
[13] = Luminescence Cell-Based Dose Retest to Confirm Inhibitors of Cancer Stem Cells. [Related pubchem assays (depositor defined):AID2717, AID2721]; format: functional; conditions: Homo sapiens
[14] = cytotoxicity in HMLE control line with eGFP shRNA, dose response, counter-screen for HMLE_sh_ECad selective toxicity project, cell-based, HMLE_sh_eGFP, luminescence (AID 463074); format: functional, Homo sapiens;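 further: HMLE human mammary epithelial cells expressing control shRNA against eGFP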

T3 sequence (P34972 whole entry): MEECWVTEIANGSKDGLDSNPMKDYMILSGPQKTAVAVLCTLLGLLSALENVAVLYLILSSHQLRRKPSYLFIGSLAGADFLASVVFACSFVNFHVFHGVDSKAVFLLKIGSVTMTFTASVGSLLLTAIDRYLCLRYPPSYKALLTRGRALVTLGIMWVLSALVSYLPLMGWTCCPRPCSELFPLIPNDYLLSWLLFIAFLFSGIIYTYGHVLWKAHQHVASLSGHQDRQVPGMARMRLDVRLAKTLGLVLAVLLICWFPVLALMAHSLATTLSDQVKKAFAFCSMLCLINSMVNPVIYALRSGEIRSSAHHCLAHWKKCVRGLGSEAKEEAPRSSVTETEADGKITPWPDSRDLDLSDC
T1 sequence (P49327 whole entry, the tested form may be a part): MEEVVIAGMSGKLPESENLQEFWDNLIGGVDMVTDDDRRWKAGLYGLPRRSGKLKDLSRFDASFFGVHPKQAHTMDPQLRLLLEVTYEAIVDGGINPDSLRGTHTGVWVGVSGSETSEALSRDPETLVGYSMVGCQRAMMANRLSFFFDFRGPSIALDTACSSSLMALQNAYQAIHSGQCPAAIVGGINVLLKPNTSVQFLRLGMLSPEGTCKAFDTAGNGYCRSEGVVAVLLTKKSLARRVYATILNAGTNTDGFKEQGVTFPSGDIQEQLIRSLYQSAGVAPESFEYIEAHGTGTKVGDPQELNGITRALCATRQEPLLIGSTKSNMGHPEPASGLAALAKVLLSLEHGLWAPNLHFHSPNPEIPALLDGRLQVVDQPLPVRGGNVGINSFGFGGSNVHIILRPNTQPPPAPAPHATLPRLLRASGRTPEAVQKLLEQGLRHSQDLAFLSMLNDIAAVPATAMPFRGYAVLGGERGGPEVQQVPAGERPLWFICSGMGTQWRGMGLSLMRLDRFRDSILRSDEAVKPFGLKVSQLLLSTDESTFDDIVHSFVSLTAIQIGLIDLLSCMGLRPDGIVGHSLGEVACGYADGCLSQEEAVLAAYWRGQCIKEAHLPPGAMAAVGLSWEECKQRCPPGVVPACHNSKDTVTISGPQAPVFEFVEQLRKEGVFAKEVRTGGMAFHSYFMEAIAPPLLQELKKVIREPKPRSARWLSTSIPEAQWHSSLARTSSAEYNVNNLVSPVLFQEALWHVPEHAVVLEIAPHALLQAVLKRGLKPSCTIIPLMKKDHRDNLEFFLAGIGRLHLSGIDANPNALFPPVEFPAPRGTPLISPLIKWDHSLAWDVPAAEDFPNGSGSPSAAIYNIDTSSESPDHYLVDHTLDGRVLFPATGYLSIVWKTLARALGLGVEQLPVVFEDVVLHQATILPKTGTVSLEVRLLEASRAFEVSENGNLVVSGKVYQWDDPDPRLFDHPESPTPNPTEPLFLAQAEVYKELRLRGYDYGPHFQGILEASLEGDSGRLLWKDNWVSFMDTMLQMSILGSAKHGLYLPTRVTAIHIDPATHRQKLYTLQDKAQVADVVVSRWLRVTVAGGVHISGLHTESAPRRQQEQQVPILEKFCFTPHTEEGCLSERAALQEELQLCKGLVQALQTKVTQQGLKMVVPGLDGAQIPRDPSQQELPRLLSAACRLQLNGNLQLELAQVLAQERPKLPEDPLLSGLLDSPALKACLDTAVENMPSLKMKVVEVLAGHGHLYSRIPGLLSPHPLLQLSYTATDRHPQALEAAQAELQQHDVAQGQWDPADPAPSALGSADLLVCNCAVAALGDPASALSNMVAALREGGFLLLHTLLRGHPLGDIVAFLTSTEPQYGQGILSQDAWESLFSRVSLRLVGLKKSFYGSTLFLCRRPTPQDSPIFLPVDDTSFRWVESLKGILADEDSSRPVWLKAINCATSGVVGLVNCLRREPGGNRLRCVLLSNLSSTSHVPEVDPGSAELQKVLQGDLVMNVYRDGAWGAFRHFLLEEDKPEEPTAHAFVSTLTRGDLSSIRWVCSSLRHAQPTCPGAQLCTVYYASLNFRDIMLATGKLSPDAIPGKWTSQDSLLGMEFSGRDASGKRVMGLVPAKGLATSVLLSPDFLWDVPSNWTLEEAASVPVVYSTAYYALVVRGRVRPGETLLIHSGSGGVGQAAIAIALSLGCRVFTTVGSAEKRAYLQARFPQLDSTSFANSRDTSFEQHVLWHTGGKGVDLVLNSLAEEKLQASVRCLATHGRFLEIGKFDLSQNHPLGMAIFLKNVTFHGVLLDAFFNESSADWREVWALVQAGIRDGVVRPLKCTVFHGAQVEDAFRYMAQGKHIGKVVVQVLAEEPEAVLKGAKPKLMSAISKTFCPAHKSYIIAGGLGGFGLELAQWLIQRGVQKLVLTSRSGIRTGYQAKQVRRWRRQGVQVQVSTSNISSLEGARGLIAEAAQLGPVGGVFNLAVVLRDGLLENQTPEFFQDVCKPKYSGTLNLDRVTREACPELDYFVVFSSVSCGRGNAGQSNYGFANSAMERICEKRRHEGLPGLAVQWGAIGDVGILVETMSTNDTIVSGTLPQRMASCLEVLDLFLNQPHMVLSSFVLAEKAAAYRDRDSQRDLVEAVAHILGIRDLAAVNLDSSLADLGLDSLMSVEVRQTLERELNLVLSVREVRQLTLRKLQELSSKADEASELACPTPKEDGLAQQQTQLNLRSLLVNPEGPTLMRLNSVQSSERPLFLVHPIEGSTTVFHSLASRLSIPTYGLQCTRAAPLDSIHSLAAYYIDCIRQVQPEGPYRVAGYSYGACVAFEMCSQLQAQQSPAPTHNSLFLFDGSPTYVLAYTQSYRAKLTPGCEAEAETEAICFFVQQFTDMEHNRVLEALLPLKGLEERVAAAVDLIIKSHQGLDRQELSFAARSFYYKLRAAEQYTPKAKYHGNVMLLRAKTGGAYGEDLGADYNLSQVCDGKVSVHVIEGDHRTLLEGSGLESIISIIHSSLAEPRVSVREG
Chain of Lysine-specific demethylase 4A (O75164 whole entry, the tested form may be a part): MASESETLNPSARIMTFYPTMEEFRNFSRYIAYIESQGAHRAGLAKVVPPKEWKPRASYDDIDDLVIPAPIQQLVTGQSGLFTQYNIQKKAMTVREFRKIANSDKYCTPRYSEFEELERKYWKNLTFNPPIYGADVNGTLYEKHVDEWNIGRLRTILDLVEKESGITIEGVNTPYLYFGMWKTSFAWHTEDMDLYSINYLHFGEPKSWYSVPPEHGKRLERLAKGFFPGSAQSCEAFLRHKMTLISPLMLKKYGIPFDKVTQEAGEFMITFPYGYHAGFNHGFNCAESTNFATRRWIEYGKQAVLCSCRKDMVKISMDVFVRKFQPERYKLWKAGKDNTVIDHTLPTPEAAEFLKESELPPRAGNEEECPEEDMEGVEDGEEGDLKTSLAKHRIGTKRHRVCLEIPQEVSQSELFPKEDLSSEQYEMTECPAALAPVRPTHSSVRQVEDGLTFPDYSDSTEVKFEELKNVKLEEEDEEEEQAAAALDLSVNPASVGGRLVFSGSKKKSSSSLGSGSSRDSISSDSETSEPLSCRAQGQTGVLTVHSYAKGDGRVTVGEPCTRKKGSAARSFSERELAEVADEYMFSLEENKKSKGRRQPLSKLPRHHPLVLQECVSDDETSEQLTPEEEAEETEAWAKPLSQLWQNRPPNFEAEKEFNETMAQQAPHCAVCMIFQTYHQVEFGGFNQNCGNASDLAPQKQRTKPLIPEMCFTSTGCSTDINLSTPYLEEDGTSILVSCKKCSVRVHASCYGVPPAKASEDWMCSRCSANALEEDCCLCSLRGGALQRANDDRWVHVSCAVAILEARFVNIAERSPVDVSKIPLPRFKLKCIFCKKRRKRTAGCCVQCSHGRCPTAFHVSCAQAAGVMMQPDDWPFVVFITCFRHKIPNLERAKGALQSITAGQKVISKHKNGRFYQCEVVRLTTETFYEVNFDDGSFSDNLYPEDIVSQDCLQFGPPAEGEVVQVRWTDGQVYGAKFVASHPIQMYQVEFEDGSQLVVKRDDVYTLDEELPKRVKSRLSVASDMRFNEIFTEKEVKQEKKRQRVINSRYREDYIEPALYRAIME
Chain of Nucleotide-binding oligomerization domain-containing protein 1 (Q9Y239 whole entry, the tested form may be a part): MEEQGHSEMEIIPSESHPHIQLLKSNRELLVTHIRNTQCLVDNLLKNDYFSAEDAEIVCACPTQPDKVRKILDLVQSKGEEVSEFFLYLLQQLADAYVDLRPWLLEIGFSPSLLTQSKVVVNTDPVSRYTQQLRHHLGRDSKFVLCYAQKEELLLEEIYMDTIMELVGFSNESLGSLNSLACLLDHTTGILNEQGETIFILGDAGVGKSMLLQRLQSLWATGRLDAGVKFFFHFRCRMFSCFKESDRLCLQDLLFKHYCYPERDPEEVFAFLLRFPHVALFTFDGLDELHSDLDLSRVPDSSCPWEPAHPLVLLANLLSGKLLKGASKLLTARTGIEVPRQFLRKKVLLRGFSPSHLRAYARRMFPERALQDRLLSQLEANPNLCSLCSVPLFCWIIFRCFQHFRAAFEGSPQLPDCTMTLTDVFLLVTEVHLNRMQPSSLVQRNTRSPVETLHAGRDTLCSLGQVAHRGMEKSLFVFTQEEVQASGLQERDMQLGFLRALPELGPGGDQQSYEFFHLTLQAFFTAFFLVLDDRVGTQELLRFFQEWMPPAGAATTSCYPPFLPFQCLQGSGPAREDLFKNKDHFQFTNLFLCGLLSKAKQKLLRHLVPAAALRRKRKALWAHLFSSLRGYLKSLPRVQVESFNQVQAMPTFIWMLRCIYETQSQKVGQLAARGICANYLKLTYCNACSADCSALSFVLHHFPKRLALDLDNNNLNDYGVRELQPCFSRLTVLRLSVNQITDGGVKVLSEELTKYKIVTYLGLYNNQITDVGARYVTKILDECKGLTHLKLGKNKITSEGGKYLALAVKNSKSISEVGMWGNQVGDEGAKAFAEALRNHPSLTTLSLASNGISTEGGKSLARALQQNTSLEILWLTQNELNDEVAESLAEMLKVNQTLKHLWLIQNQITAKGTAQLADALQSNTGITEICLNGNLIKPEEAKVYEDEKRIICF
Chain of Tumor necrosis factor (P01375 whole entry, the tested form may be a part): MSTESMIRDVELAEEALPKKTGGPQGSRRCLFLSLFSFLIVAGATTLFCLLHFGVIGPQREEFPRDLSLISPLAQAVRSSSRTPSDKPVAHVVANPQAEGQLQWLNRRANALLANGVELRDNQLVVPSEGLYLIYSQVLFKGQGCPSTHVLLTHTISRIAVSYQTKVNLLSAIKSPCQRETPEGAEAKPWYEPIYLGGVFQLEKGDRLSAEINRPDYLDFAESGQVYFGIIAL

Q: For O=C(N/N=C/c1cc([N+](=O)[O-])cc([N+](=O)[O-])c1O)C(O)(c1ccccc1)c1ccccc1, which AC50 [1] is on record?
A: 3.47 µM (active)

Q: What about the IC50 [2] of the same compound?
A: 16.1 µM (active)

Q: And the AC50 [3]?
A: 2 µM (active)

Q: And the IC50 [4]?
A: 8.77 µM (active)

Q: For CCCN(CCC)Cc1c(C(=O)NN=C/C(C)=C\c2ccccc2)nnn1-c1nonc1N, which EC50 [5] is on record?
A: 0.325 µM (active)

Q: And the IC50 [6]?
A: > 32 µM (inactive)

Q: What about the EC50 [7] of the same compound?
A: > 32 µM (inactive)

Q: What about the IC50 [8] of the same compound?
A: > 32 µM (inactive)

Q: Which IC50 [9] does the source give for Nc1nc2ccccc2n1S(=O)(=O)c1ccc(C(F)(F)F)cc1 here?
A: 0.955 µM (active)

Q: And the IC50 [10]?
A: > 20 µM (inactive)

Q: What about the IC50 [11] of the same compound?
A: > 20 µM (inactive)

Q: And the IC50 [12]?
A: > 20 µM (inactive)

Q: What does the source list for COc1cc(NC(=O)c2cc(C)on2)cc(C(=O)Nc2cccc(C(F)(F)F)c2)c1?
A: AC50 [13]: 11.6 µM (active); AC50 [14]: 24.2 µM (active)
